Measurements as given in publication PMC6891289 (Molecules, 2019).
pIC50: −log10 of the molar value. Where two headings read alike, the source gives them in different places.

Assays:
[1] = biological target: T1, acetylcholinesterase from Electrophorus electricus (electric eel) (type VI-S) (Electrophorus electricus, UniProt O42275); assay: Ellman assay, […] nm, Michaelis-Menten fit; format: biochemical; conditions: no inhibitor, 0.1 to 1.6 mM substrate, phosphate buffer pH 8, 37 °C
T1 construct: gene ache; commercial native enzyme from Sigma, type VI-S lyophilized powder
T1 sequence (O42275 24-633): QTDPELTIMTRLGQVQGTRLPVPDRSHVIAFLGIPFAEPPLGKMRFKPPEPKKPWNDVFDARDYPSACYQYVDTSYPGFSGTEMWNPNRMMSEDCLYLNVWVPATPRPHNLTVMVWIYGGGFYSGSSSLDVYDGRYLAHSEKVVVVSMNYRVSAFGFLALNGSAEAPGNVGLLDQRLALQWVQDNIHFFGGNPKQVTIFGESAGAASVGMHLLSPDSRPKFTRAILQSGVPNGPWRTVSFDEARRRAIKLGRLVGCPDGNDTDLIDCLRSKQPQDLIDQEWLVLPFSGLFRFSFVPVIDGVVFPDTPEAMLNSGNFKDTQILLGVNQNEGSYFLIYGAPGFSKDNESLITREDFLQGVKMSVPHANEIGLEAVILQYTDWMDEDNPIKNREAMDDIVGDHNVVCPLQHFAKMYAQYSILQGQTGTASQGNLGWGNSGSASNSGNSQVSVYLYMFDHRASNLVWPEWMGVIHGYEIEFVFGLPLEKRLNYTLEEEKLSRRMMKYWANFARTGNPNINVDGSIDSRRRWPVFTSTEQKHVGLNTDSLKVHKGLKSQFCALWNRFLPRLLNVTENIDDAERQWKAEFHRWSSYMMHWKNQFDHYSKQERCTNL

[2] = biological target: T1, acetylcholinesterase from Electrophorus electricus (electric eel) (type VI-S); assay: Ellman assay, […] nm, 4PL fit; format: biochemical
[3] = read-out: no inhibition up to 50 μg/mL

Structure (SMILES) | pIC50 ([2]; read-out: IC50) | pIC50 [2, 3] | further results
CC(=O)SCC[N+](C)(C)C [Acetylthiocholine chloride] |  |  | Km [1]: 330 µM
COc1ccc2cc3[n+](cc2c1OC)CCc1cc2c(cc1-3)OCO2 [berberine] | 5.55 |  | 
COc1cc(C(=O)O)ccc1O [vanillic acid] |  | < 3.53 | 
COc1cc(/C=C/C(=O)O)ccc1O [ferulic acid] |  | < 3.59 | 
O=C(O)c1cc(O)c(O)c(O)c1 [gallic acid] | 4.33 |  | 
